Measurements taken from US10940139B2, “Compounds that interact with the Ras superfamily for the treatment of cancers, inflammatory diseases, rasopathies, and fibrotic disease” (Shy Therapeutics LLC, priority 2017, dated 2021).

Each compound was assayed on MAPK phosphorylation in PANC-1 pancreatic cancer cell line (assay: MAPK cell-based phosphorylation assay (cell-direct ELISA, EGF stimulation)). Conditions: Homo sapiens.
Procedure, shortened: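 Cell-direct ELISA measured phospho-MAPK, with fluorescence read at 595 nm from AmpliFlu Red. Before fixation, PANC-1 cells starved overnight received 6 hours of compound (30 μM single dose or serial dilutions, 0.3% DMSO, 37° C), followed by 1.5 ng/ml EGF for 15 min.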

| SMILES | IC50 |
| --- | --- |
| CC1CN(c2ccccc2)CCN1C(=O)c1csc2c(O)nc(-c3ccccn3)nc12 (centres unmarked) [drawing 1143] | > 30 µM |
| COCc1ccc(-c2csc3c(O)nc(-c4ccccn4)nc23)cc1F [drawing 1190] | 2 to 10 µM |
| CC(C)(C)c1ccc(-c2csc3c(O)nc(-c4ccccn4)nc23)cc1 [drawing 1191] | 2 to 10 µM |
| Oc1nc(-c2ccccn2)nc2c(-c3cc(Cl)cc(Cl)c3)csc12 [drawing 1192] | > 30 µM |
| Oc1nc(-c2ccccn2)nc2c(-c3cccc4c3OCO4)csc12 [drawing 1193] | < 2 µM |
| Oc1nc(-c2ccccn2)nc2c(-c3ccccc3F)csc12 [drawing 1207] | 2 to 10 µM |
| Oc1nc(-c2ccccn2)nc2c(-c3ccc(F)cc3F)csc12 [drawing 1210] | 2 to 10 µM |
| Oc1nc(-c2ccccn2)nc2c(-c3cccc(C(F)(F)F)c3)csc12 [drawing 1212] | < 2 µM |
| Oc1nc(-c2ccccn2)nc2c(-c3ccsc3)csc12 [drawing 1214] | < 2 µM |

Same assay, conditions: Homo sapiens, * = tested at 10 μM

| SMILES | inhibition at 10 µM |
| --- | --- |
| O=C(COCc1ccncc1)Nc1nc(-c2ccccn2)nc2sccc12 [drawing 1185] | 1 to 25% |
| COc1ccnc(-c2nc(O)c3c(C(F)(F)F)csc3n2)c1 [drawing 1186] | 1 to 25% |
| Nc1nc(-c2ccccn2)nc2ccsc12 [drawing 1187] | 1 to 25% |
| O=C(c1cc2nc(-c3ccccn3)nc(O)c2s1)N1CCN(c2ccccc2)CC1 [drawing 1188] | 1 to 25% |
| Cc1ccc(OC2CCCC2)c(-c2csc3c(O)nc(-c4ccccn4)nc23)c1 [drawing 1189] | 25 to 50% |
| COCc1ccc(-c2csc3c(O)nc(-c4ccccn4)nc23)cc1F [drawing 1190] | 76 to 100% |
| CC(C)(C)c1ccc(-c2csc3c(O)nc(-c4ccccn4)nc23)cc1 [drawing 1191] | 76 to 100% |
| Oc1nc(-c2ccccn2)nc2c(-c3cc(Cl)cc(Cl)c3)csc12 [drawing 1192] | 1 to 25% |
| Oc1nc(-c2ccccn2)nc2c(-c3cccc4c3OCO4)csc12 [drawing 1193] | 76 to 100% |
| Oc1nc(-c2ccccn2)nc2sc3c(c12)CCNC3 [drawing 1194] | 25 to 50% |
| COc1ccc(CCNC(=O)c2csc3nc(-c4ccccn4)nc(N4CCS(=O)(=O)CC4)c23)cn1 [drawing 1195] | 1 to 25% |
| O=C(NCCc1cnc(O)nc1)c1csc2nc(-c3ccccn3)nc(N3CCS(=O)(=O)CC3)c12 [drawing 1196] | 1 to 25% |
| N#Cc1ccc2c(c1)CCCC2C(=O)Nc1ccnc(-c2ccccn2)n1 (centres unmarked) [drawing 1197] | 1 to 25% |
| Cc1cnc(-c2ccccn2)nc1NC(=O)Cc1ccc2cnccc2c1 [drawing 1198] | 25 to 50% |
| O=C(COCc1ccnc(O)c1)Nc1nc(-c2ccccn2)nc2sccc12 [drawing 1199] | 1 to 25% |
| O=C(c1csc2c(O)nc(-c3ccccn3)nc12)N1CCNC(c2cn[nH]c2)C1 (centres unmarked) [drawing 1200] | 25 to 50% |
| Nc1nc(-c2ccccn2)nc2c(-c3ccccc3)csc12 [drawing 1201] | 25 to 50% |

| SMILES | inhibition at 10 µM |
| --- | --- |
| Oc1nc(-c2ccccn2)nc2c(-c3cc(F)ccc3OC(F)F)csc12 [drawing 1202] | 1 to 25% |
| Oc1nc(-c2ccccn2)nc2c(-c3ccc(OC4CCCC4)cc3)csc12 [drawing 1203] | 25 to 50% |
| Oc1nc(-c2ccccn2)nc2c(-c3ccc(C4CCC4)cc3)csc12 [drawing 1204] | 51 to 75% |
| Oc1nc(-c2ccccn2)nc2c(-c3ccccc3OC3CCCCC3)csc12 [drawing 1205] | 1 to 25% |
| Oc1nc(-c2ccccn2)nc2c(-c3ccc(OC4CCOCC4)cc3)csc12 [drawing 1206] | 1 to 25% |
| Oc1nc(-c2ccccn2)nc2c(-c3ccccc3F)csc12 [drawing 1207] | 76 to 100% |
| COc1cc(C)c(-c2csc3c(O)nc(-c4ccccn4)nc23)cc1C [drawing 1208] | 1 to 25% |
| COc1ccccc1-c1csc2c(O)nc(-c3ccccn3)nc12 [drawing 1209] | 1 to 25% |
| Oc1nc(-c2ccccn2)nc2c(-c3ccc(F)cc3F)csc12 [drawing 1210] | 76 to 100% |
| COc1cccc(-c2csc3c(O)nc(-c4ccccn4)nc23)c1 [drawing 1211] | 1 to 25% |
| Oc1nc(-c2ccccn2)nc2c(-c3cccc(C(F)(F)F)c3)csc12 [drawing 1212] | 76 to 100% |
| COc1ccc(F)cc1-c1csc2c(O)nc(-c3ccccn3)nc12 [drawing 1213] | 25 to 50% |
| Oc1nc(-c2ccccn2)nc2c(-c3ccsc3)csc12 [drawing 1214] | 76 to 100% |
| Oc1nc(-c2ccccn2)nc2c(-c3ccc(OC(F)F)cc3F)csc12 [drawing 1215] | 51 to 75% |
| CC(C)COc1ccc(-c2csc3c(O)nc(-c4ccccn4)nc23)cn1 [drawing 1216] | 51 to 75% |
| Cc1cc(OC(F)F)ccc1-c1csc2c(O)nc(-c3ccccn3)nc12 [drawing 1217] | 1 to 25% |
| Oc1nc(-c2ccccn2)nc2c(-c3ccc4c(c3)OCO4)csc12 [drawing 1218] | 76 to 100% |

Same assay, conditions: Homo sapiens, at 30 μM

| SMILES | inhibition at 30 µM |
| --- | --- |
| N#Cc1cccc(N2CCN(C(=O)c3csc4c(O)nc(-c5ccccn5)nc34)CC2)c1 [drawing 1139] | 1 to 25% |
| COc1cc(OC)cc(N2CCN(C(=O)c3csc4c(O)nc(-c5ccccn5)nc34)CC2)c1 [drawing 1140] | 1 to 25% |
| COc1cc(N2CCN(C(=O)c3csc4c(O)nc(-c5ccccn5)nc34)CC2)cc(OC)c1OC [drawing 1141] | 1 to 25% |
| O=C(c1csc2c(O)nc(-c3ccccn3)nc12)N1CCN(c2ccc(F)cc2F)CC1 [drawing 1142] | 1 to 25% |
| CC1CN(c2ccccc2)CCN1C(=O)c1csc2c(O)nc(-c3ccccn3)nc12 (centres unmarked) [drawing 1143] | 51 to 75% |
| O=C(c1csc2c(O)nc(-c3ccccn3)nc12)N1CCN(Cc2ccccc2)CC1 [drawing 1144] | 1 to 25% |
| COc1cccc(CN2CCN(C(=O)c3csc4c(O)nc(-c5ccccn5)nc34)CC2)c1 [drawing 1145] | 25 to 50% |
| O=C(c1csc2c(O)nc(-c3ccccn3)nc12)N1CCN(Cc2ccc(O)cc2)CC1 [drawing 1146] | 25 to 50% |
| O=C(c1csc2c(O)nc(-c3ccccn3)nc12)N1CCN(Cc2ccc(O)c(Cl)c2)CC1 [drawing 1147] | 25 to 50% |
| COc1ccccc1C1CN(C(=O)c2csc3c(O)nc(-c4ccccn4)nc23)CCO1 (centres unmarked) [drawing 1148] | 1 to 25% |
| O=C(c1csc2c(O)nc(-c3ccccn3)nc12)N1CCOC(c2ccccc2Cl)C1 (centres unmarked) [drawing 1149] | 1 to 25% |
| COc1cccc(C2CN(C(=O)c3csc4c(O)nc(-c5ccccn5)nc34)CCN2)c1 (centres unmarked) [drawing 1150] | 1 to 25% |
| COc1ccc(C2CN(C(=O)c3csc4c(O)nc(-c5ccccn5)nc34)CCN2)cc1 (centres unmarked) [drawing 1151] | 25 to 50% |
| Cc1ccccc1C1CN(C(=O)c2csc3c(O)nc(-c4ccccn4)nc23)CCN1 (centres unmarked) [drawing 1152] | 1 to 25% |
| O=C(c1csc2c(O)nc(-c3ccccn3)nc12)N1CCNC(c2ccccc2F)C1 (centres unmarked) [drawing 1153] | 1 to 25% |
| O=C(c1csc2c(O)nc(-c3ccccn3)nc12)N1CCNC(Cc2ccccc2)C1 (centres unmarked) [drawing 1154] | 1 to 25% |
| COc1cc(CCN(C)C(=O)c2csc3nc(-c4ccccn4)nc(N4CCOCC4)c23)ccn1 [drawing 1155] | 1 to 25% |
| COCCCCNC(=O)c1csc2nc(-c3ccccn3)nc(N3CCOCC3)c12 [drawing 1156] | 1 to 25% |
| COCCN(CCOC)c1nc(-c2ccccn2)nc2scc(C(=O)NCCc3ccc(OC)nc3)c12 [drawing 1157] | 1 to 25% |
| CC(C(=O)Nc1ccnc(-c2ccccn2)n1)c1ccc(C#N)cc1 (centres unmarked) [drawing 1158] | 1 to 25% |
| COc1ccc2c(c1)CCC2C(=O)Nc1ccnc(-c2ccccn2)n1 (centres unmarked) [drawing 1159] | 1 to 25% |
| Cc1cnc(-c2ccccn2)nc1NC(=O)C(C)c1ccc(C#N)cc1 (centres unmarked) [drawing 1160] | 1 to 25% |
| N#Cc1ccc(COCC(=O)Nc2nc(-c3ccccn3)nc3sccc23)cc1 [drawing 1161] | 1 to 25% |

| SMILES | inhibition at 30 µM |
| --- | --- |
| COc1ccnc(-c2nc(O)c3c(Cl)csc3n2)c1 [drawing 1162] | 1 to 25% |
| COc1cnc(CN)[nH]c1=O [drawing 1163] | 1 to 25% |
| COc1ccc(N2CCN(C(=O)c3csc4c(O)nc(-c5ccccn5)nc34)CC2)cc1O [drawing 1164] | 1 to 25% |
| O=C(c1csc2c(O)nc(-c3ccccn3)nc12)N1CCN(c2ccc(O)c(Cl)c2)CC1 [drawing 1165] | 1 to 25% |
| CC(c1ccccc1)N1CCN(C(=O)c2csc3c(O)nc(-c4ccccn4)nc23)CC1 (centres unmarked) [drawing 1166] | 1 to 25% |
| O=C(c1csc2c(O)nc(-c3ccccn3)nc12)N1CCNC(c2ccc(F)cc2)C1 (centres unmarked) [drawing 1167] | 1 to 25% |
| O=C(NCCc1ccc(O)nc1)c1csc2nc(-c3ccccn3)nc(N3CCOCC3)c12 [drawing 1168] | 1 to 25% |
| O=C(NCCc1cnc(O)nc1)c1csc2nc(-c3ccccn3)nc(N3CCOCC3)c12 [drawing 1169] | 25 to 50% |
| CS(=O)(=O)CCCNC(=O)c1csc2nc(-c3ccccn3)nc(N3CCOCC3)c12 [drawing 1170] | 25 to 50% |
| COCCN(CCOC)c1nc(-c2ccccn2)nc2scc(C(=O)NCCc3cnc(O)nc3)c12 [drawing 1171] | 25 to 50% |
| COc1cc(COCC(=O)Nc2ccnc(-c3ccccn3)n2)ccn1 [drawing 1172] | 25 to 50% |
| Cc1cnc(-c2ccccn2)nc1NC(=O)Cc1ccc(C#N)cc1 [drawing 1173] | 51 to 75% |
| Cc1cnc(-c2ccccn2)nc1NC(=O)COCc1ccc(C#N)cc1 [drawing 1174] | 1 to 25% |
| Cc1cnc(-c2ccccn2)nc1NC(=O)COCc1ccnc(O)c1 [drawing 1175] | 25 to 50% |
| N#Cc1ccc(CC(=O)Nc2nc(-c3ccccn3)nc3sccc23)cc1 [drawing 1176] | 76 to 100% |
| COc1ccc2c(c1)CCC2C(=O)Nc1nc(-c2ccccn2)nc2sccc12 (centres unmarked) [drawing 1177] | 1 to 25% |
| N#Cc1csc2nc(-c3ccccn3)nc(N3CCOCC3)c12 [drawing 1178] | 1 to 25% |
| COc1cc(N2CCN(C(=O)c3csc4c(O)nc(-c5ccccn5)nc34)CC2)ccc1O [drawing 1179] | 25 to 50% |
| Nc1nc(-c2ccccn2)nc2sccc12 [drawing 1180] | 1 to 25% |
| Nc1nc(-c2ccccn2)nc2scc(-c3ccccc3)c12 [drawing 1181] | 1 to 25% |
| COC(=O)c1csc2c(O)nc(-c3ccccn3)nc12 [drawing 1182] | 25 to 50% |
| COc1cnc(CNC(=O)Cn2cnc3nc(-c4ccccn4)nc(N4CCOCC4)c32)[nH]c1=O [drawing 1183] | 1 to 25% |
| NC(=O)Cn1cnc2nc(-c3ccccn3)nc(N3CCOCC3)c21 [drawing 1184] | 1 to 25% |
